According to patent US8889887B2, “Pentamethine cyanine fluorescent dyes, preparation methods and uses thereof” (Dalian University of Technology, priority 2011, dated 2014):
Several values for one entry are separate records, joined by “and”; a condition that tells them apart may be missing. Identical values can stand only once. Counter-ions that a name gives are not always drawn. Blank lines part the entries; values can stand above or below the molecule they belong to.

Tests used:
Assay type in all cases: physicochemical
[1] = Fluorescence lifetime in solutions with different viscosity
Procedure: (§1) Firstly, DMSO solutions of 4 and 7 having a concentration of 1.0×10^−3 M were prepared, respectively. The stock solution of […] was added into 10 mL glycerol-ethanol mixture, and ultrasonicated to remove bubbles. The solution stayed for 1 hour, and then absorption and emission spectra therefore were measured by using UV-visible spectrophotometer and fluorescence spectrophotometer, and fluorescence lifetime of solution with different viscosity was detected as well. UV-visible spectrophotometer, model: Hp8453; fluorescence spectrophotometer model: FP-6500; Fluorescence lifetime equipment: Horiba Jobin Yvon Fluoromax-4-p.
(§2) Glycerol-ethanol mixture was a mixture of glycerol and ethanol, Vglycerol: Vethanol were 1:9, 2:8, 3:7, 4:6, 5:5, 6:4, 7:3, 8:2 and 9:1.

[2] = Viscosity experiments: absorption and emission spectra in glycerol-ethanol mixtures; details: glycerol-ethanol mixtures
Procedure: as §1, §2

[3] = UV absorption and fluorescence emission spectra in different solvents; details: for λabs1 maximum absorption wavelength / λabs2 maximum absorption wavelength / λem1 maximum emission wavelength / λem2 maximum emission wavelength: 1 μM; for Φ1 fluorescence quantum yield / Φ2 fluorescence quantum yield / Φ fluorescence quantum yield (single peak): reference Rhodamine B in ethanol
Procedure: Firstly, stock solutions of 4 and 7 in DMSO were prepared respectively. Then sample solutions of 1 μM were prepared by diluting the mother liquors with corresponding chromatography grade solvent. UV absorption and fluorescence emission spectra of the sample solutions in different solvents were measured at room temperature, the results were shown in FIGS. 1A and 1B, respectively.

fluorescence lifetime ([1]; 99% glycerol solution): 1450 ps
fluorescence lifetime ([1]; pure ethanol): lower than 50 ps
sensitivity of fluorescence intensity to solvent viscosity [2]: quite sensitive to solvent viscosity
Δλ1 Stokes Shift (λem1 − λabs1) ([3]; DMSO): 51 nm
Δλ2 Stokes Shift (λem2 − λabs2) ([3]; DMSO): 17 nm
Δλ3 Stokes Shift (λem2 − λabs1) ([3]; DMSO): 230 nm
ε1 molar extinction coefficient ([3]; DMSO): 15000 L/cm/mol
ε2 molar extinction coefficient ([3]; DMSO): 108500 L/cm/mol
λabs1 maximum absorption wavelength ([3]; DMSO): 400 nm
λabs2 maximum absorption wavelength ([3]; DMSO): 613 nm
λem1 maximum emission wavelength ([3]; DMSO): 451 nm
λem2 maximum emission wavelength ([3]; DMSO): 630 nm
Φ1 fluorescence quantum yield ([3]; DMSO): 0.0158
Φ2 fluorescence quantum yield ([3]; DMSO): 0.0224
Δλ1 Stokes Shift (λem1 − λabs1) ([3]; acetonitrile): 54 nm
Δλ2 Stokes Shift (λem2 − λabs2) ([3]; acetonitrile): 19 nm
Δλ3 Stokes Shift (λem2 − λabs1) ([3]; acetonitrile): 229 nm
ε1 molar extinction coefficient ([3]; acetonitrile): 11200 L/cm/mol
ε2 molar extinction coefficient ([3]; acetonitrile): 93500 L/cm/mol
λabs1 maximum absorption wavelength ([3]; acetonitrile): 397 nm
λabs2 maximum absorption wavelength ([3]; acetonitrile): 607 nm
λem1 maximum emission wavelength ([3]; acetonitrile): 451 nm
λem2 maximum emission wavelength ([3]; acetonitrile): 626 nm
Φ1 fluorescence quantum yield ([3]; acetonitrile): 0.0062
Φ2 fluorescence quantum yield ([3]; acetonitrile): 0.0071
Δλ1 Stokes Shift (λem1 − λabs1) ([3]; dichloromethane): 55 nm
Δλ2 Stokes Shift (λem2 − λabs2) ([3]; dichloromethane): 29 nm
Δλ3 Stokes Shift (λem2 − λabs1) ([3]; dichloromethane): 255 nm
ε1 molar extinction coefficient ([3]; dichloromethane): 16000 L/cm/mol
ε2 molar extinction coefficient ([3]; dichloromethane): 89700 L/cm/mol
λabs1 maximum absorption wavelength ([3]; dichloromethane): 399 nm
λabs2 maximum absorption wavelength ([3]; dichloromethane): 625 nm
λem1 maximum emission wavelength ([3]; dichloromethane): 454 nm
λem2 maximum emission wavelength ([3]; dichloromethane): 654 nm
Φ1 fluorescence quantum yield ([3]; dichloromethane): 0.0060
Φ2 fluorescence quantum yield ([3]; dichloromethane): 0.0231
Δλ1 Stokes Shift (λem1 − λabs1) ([3]; ethanol): 52 nm
Δλ2 Stokes Shift (λem2 − λabs2) ([3]; ethanol): 40 nm
Δλ3 Stokes Shift (λem2 − λabs1), pseudo-Stokes Shift ([3]; ethanol): 254 nm
ε1 molar extinction coefficient ([3]; ethanol): 13800 L/cm/mol
ε2 molar extinction coefficient ([3]; ethanol): 97500 L/cm/mol
λabs1 maximum absorption wavelength ([3]; ethanol): 399 nm
λabs2 maximum absorption wavelength ([3]; ethanol): 613 nm
λem1 maximum emission wavelength ([3]; ethanol): 451 nm
λem2 maximum emission wavelength ([3]; ethanol): 653 nm
Φ1 fluorescence quantum yield ([3]; ethanol): 0.0050
Φ2 fluorescence quantum yield ([3]; ethanol): 0.0108
sensitivity to solvent polarity ([3]; low-viscosity solvents of different polarity): insensitive to solvent polarity
Δλ1 Stokes Shift (λem1 − λabs1) ([3]; methanol): 51 nm
Δλ2 Stokes Shift (λem2 − λabs2) ([3]; methanol): 42 nm
Δλ3 Stokes Shift (λem2 − λabs1) ([3]; methanol): 250 nm
ε1 molar extinction coefficient ([3]; methanol): 14500 L/cm/mol
ε2 molar extinction coefficient ([3]; methanol): 99300 L/cm/mol
λabs1 maximum absorption wavelength ([3]; methanol): 400 nm
λabs2 maximum absorption wavelength ([3]; methanol): 608 nm
λem1 maximum emission wavelength ([3]; methanol): 451 nm
λem2 maximum emission wavelength ([3]; methanol): 650 nm
Φ1 fluorescence quantum yield ([3]; methanol): 0.0050
Φ2 fluorescence quantum yield ([3]; methanol): 0.0079
absorption peak, longer wavelength ([3]; solvent not stated): 610 nm
absorption peak, shorter wavelength ([3]; solvent not stated): 400 nm
emission peak, longer wavelength ([3]; solvent not stated): 650 nm
emission peak, shorter wavelength ([3]; solvent not stated): 456 nm and 460 nm
Δλ1 Stokes Shift (λem1 − λabs1) ([3]; water): 47 nm
Δλ2 Stokes Shift (λem2 − λabs2) ([3]; water): 43 nm
Δλ3 Stokes Shift (λem2 − λabs1) ([3]; water): 230 nm
ε1 molar extinction coefficient ([3]; water): 16800 L/cm/mol
ε2 molar extinction coefficient ([3]; water): 62100 L/cm/mol
λabs1 maximum absorption wavelength ([3]; water): 413 nm
λabs2 maximum absorption wavelength ([3]; water): 600 nm
λem1 maximum emission wavelength ([3]; water): 460 nm
λem2 maximum emission wavelength ([3]; water): 643 nm
Φ1 fluorescence quantum yield ([3]; water): 0.0023
Φ2 fluorescence quantum yield ([3]; water): 0.0032
SMILES: CCN1/C(=C/C=C(C=O)/C=C/C2=[N+](CC)c3ccccc3C2(C)C)C(C)(C)c2ccccc21 [compound 4, 1,5-di(1-N-ethyl-3,3-dimethyl-2,3-H-lindoline)-3-formyl-1,3,5-pentatriene chloride quaternary ammonium salt cyanine dye]

Δλ Stokes Shift (single peak) ([3]; DMSO): 13 nm
ε molar extinction coefficient (single peak) ([3]; DMSO): 272000 L/cm/mol
λabs maximum absorption wavelength (single peak) ([3]; DMSO): 655 nm
λem maximum emission wavelength (single peak) ([3]; DMSO): 668 nm
Φ fluorescence quantum yield (single peak) ([3]; DMSO): 0.33
Δλ Stokes Shift (single peak) ([3]; THF): 9 nm
ε molar extinction coefficient (single peak) ([3]; THF): 227000 L/cm/mol
λabs maximum absorption wavelength (single peak) ([3]; THF): 653 nm
λem maximum emission wavelength (single peak) ([3]; THF): 662 nm
Φ fluorescence quantum yield (single peak) ([3]; THF): 0.37
Δλ Stokes Shift (single peak) ([3]; dichloromethane): 6 nm
ε molar extinction coefficient (single peak) ([3]; dichloromethane): 306000 L/cm/mol
λabs maximum absorption wavelength (single peak) ([3]; dichloromethane): 661 nm
λem maximum emission wavelength (single peak) ([3]; dichloromethane): 671 nm
Φ fluorescence quantum yield (single peak) ([3]; dichloromethane): 0.29
Δλ Stokes Shift (single peak) ([3]; ethanol): 11 nm
ε molar extinction coefficient (single peak) ([3]; ethanol): 302000 L/cm/mol
λabs maximum absorption wavelength (single peak) ([3]; ethanol): 652 nm
λem maximum emission wavelength (single peak) ([3]; ethanol): 663 nm
Φ fluorescence quantum yield (single peak) ([3]; ethanol): 0.27
Δλ Stokes Shift (single peak) ([3]; methanol): 10 nm
ε molar extinction coefficient (single peak) ([3]; methanol): 259000 L/cm/mol
λabs maximum absorption wavelength (single peak) ([3]; methanol): 649 nm
λem maximum emission wavelength (single peak) ([3]; methanol): 659 nm
Φ fluorescence quantum yield (single peak) ([3]; methanol): 0.22
Δλ Stokes Shift (single peak) ([3]; water): 8 nm
ε molar extinction coefficient (single peak) ([3]; water): 227000 L/cm/mol
λabs maximum absorption wavelength (single peak) ([3]; water): 648 nm
λem maximum emission wavelength (single peak) ([3]; water): 656 nm
Φ fluorescence quantum yield (single peak) ([3]; water): 0.13
SMILES: CCN1/C(=C/C=C/C=C/C2=[N+](CC)c3ccccc3C2(C)C)C(C)(C)c2ccccc21 [ethyl-Cy5, reference compound]
